The source of these data is ChEMBL document CHEMBL1201862, “PubChem BioAssay data set” (2004).

What all share (test): NCI anticancer screen, dose series, 48 h
The subject of assay [1] is KM12.
Assay [2] relates to SR.
Assay [3] relates to PC-3.
Assay [4] concerns UACC-62.
The test system of assay [5] is HCT-116.
Assay [6] relates to Hs-578T.
Assay [7] relates to MDA-MB-435.
Assay [8] has as its system BT-549.
Assay [9] concerns EKVX.
Assay [10] deals with NCI-H460.
For assay [11], the system named is OVCAR-3.
Assay [12] deals with HCC 2998.
Assay [13] has as its system IGROV-1.
Assay [14] relates to SK-MEL-5.
The test system of assay [15] is SN12C.
Assay [16] deals with RXF 393.
Assay [17] concerns OVCAR-5.
For assay [18], the system named is SNB-19.
In assay [19] the test system is SK-OV-3.
In assay [20] the test system is OVCAR-4.

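A five-concentration, 48-hour dose response in 96-well plates underlies each endpoint, interpolated linearly between surrounding concentrations. GI50 marks 50% less growth.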 Activity calls are given as the source filed them. Rule as the data show it: active = GI50 up to about 1.1 µM and inactive = higher. Bounds are passed on as bounds.

Consider `O=C(/C=C/c1ccc(OCc2cccc(Cl)c2)cc1)NO`, for which the GI50 in assay [1] is 16.5 µM (inactive); in assay [2], 3.55 µM (inactive); in assay [3], 12.6 µM (inactive); in [4], 13.1 µM (inactive); in assay [5] it was 11.5 µM (inactive); in [6] it was 35 µM (inactive). The GI50 is 18.5 µM (inactive) in assay [7]; 24.8 µM (inactive) in assay [8]; 23.9 µM (inactive) in assay [9]; 15.9 µM (inactive) in assay [10]; 19.2 µM (inactive) in [11]; 14.2 µM (inactive) in assay [12]. Further, the GI50 in assay [13] is 11.9 µM (inactive); in assay [14], 16.4 µM (inactive); in assay [15], 20.6 µM (inactive); in assay [16], 15.5 µM (inactive); in assay [17], 13.9 µM (inactive); in [18], 18 µM (inactive). Also, the results for the GI50 in [19] and in assay [20] were 17.9 µM (inactive) and 13.5 µM (inactive), respectively.
As for `N#CCCN(CCCN(CCCN(C(=O)Nc1ccccc1)c1ccccc1)C(=O)Nc1ccccc1)C(=O)Nc1ccccc1`, the GI50 was > 8.75 µM (inactive) in assay [1]; 0.998 µM (active) in assay [2]; > 8.75 µM (inactive) in assay [3]; > 8.75 µM (inactive) in assay [4]; > 8.75 µM (inactive) in [5]; 73.5 µM (inactive) in [6]. In addition, the GI50 in assay [7] is > 8.75 µM (inactive); in [8], > 8.75 µM (inactive); in [9], > 8.75 µM (inactive); in [10], > 8.75 µM (inactive); in assay [11] it was > 8.75 µM (inactive); in [12], > 100 µM (inactive). Besides, the GI50 in assay [13], in assay [14], in [15], in assay [16], in assay [17] and in assay [18] was > 8.75 µM (inactive) in each case. For the same compound, the GI50 is > 8.75 µM (inactive) in assay [19] and > 100 µM (inactive) in assay [20].
Turning to `O=C1C([N-]S(=O)(=O)c2ccccc2)=C([n+]2ccc(Cc3ccccc3)cc2)C(=O)c2ccccc21`, the GI50 in assay [1] is 1.89 µM (inactive); in assay [2], 2.59 µM (inactive); in assay [3], 2.21 µM (inactive); in assay [4], 1.15 µM (inactive); in assay [5], 0.91 µM (active); in [6], 2.19 µM (inactive). Further, the GI50 in assay [7] was 0.18 µM (active); in assay [8], 1.36 µM (inactive); in assay [9], 1.76 µM (inactive); in assay [10], 0.535 µM (active); in assay [11], 0.142 µM (active); in assay [12], 1.2 µM (inactive). In addition, the GI50 in assay [13] was 1.79 µM (inactive); in [14], 0.145 µM (active); in assay [15] it was 1.7 µM (inactive); in assay [16], 2.31 µM (inactive); in [17], 2.03 µM (inactive); in [18], 1.71 µM (inactive). The GI50 in [19] is 6.12 µM (inactive); in assay [20], 1.56 µM (inactive).
For the compound `Cc1ccc([C@@H]2[C@@H](C(=O)c3ccccn3)[C@H](c3ccc(C)cc3)C[C@](O)(c3ccccn3)[C@H]2C(=O)c2ccccn2)cc1`, the GI50 in assay [1] is 7.98 µM (inactive); in [2], 0.495 µM (active); in assay [3], 6.56 µM (inactive); in assay [4] it was 3.16 µM (inactive); in [5], 2.89 µM (inactive); in assay [6], 26.5 µM (inactive). Moreover, the GI50 in assay [7] was 8.22 µM (inactive); in [8], > 27.4 µM (inactive); in [9] it was 0.728 µM (active); in assay [10] it was 2.27 µM (inactive); in [11], 7.8 µM (inactive); in [12], 7.35 µM (inactive). Further, the GI50 in assay [13] was 4.53 µM (inactive); in assay [14], 3.71 µM (inactive); in assay [15] it was 3.18 µM (inactive); in assay [16], 3.15 µM (inactive); in [17] it was 8.93 µM (inactive); in assay [18], 3.04 µM (inactive). The GI50 in [20] was 4.98 µM (inactive).
On to `Cc1ccc(/C=C/c2n[nH]c(N/N=C/c3ccc4c(c3)OCO4)nc2=O)cc1`, for which the GI50 was 17.3 µM (inactive) in assay [1]; 11.2 µM (inactive) in assay [2]; 21 µM (inactive) in assay [3]; 21.1 µM (inactive) in assay [5]; 13.6 µM (inactive) in assay [6]; 33.4 µM (inactive) in assay [7]. For the same compound, the GI50 in [8] was 17.9 µM (inactive); in assay [9] it was 35.3 µM (inactive); in [10], 24.9 µM (inactive); in [11] it was 19.6 µM (inactive); in assay [12] it was 22.3 µM (inactive); in assay [13], 20.2 µM (inactive). Also, the GI50 in [14] was 30.1 µM (inactive); in assay [15] it was 18.5 µM (inactive); in [16] it was 27.2 µM (inactive); in assay [17] it was > 100 µM (inactive); in [18], 18.5 µM (inactive); in [19], 30.5 µM (inactive). Also, in assay [20], the GI50 is 19.3 µM (inactive).
On to `COc1ccccc1Cc1ccc(C2C=CC3(CC(=O)C=C3C)C(=O)C2)o1` (stereo unspecified), for which the GI50 was 29 µM (inactive) in assay [1]; 18.4 µM (inactive) in assay [2]; 16.1 µM (inactive) in assay [3]; 13.9 µM (inactive) in assay [4]; 27.2 µM (inactive) in [5]; 20.2 µM (inactive) in assay [6]. For the same compound, the GI50 in assay [7] was 19.4 µM (inactive); in assay [8] it was 20.6 µM (inactive); in assay [9], 34.8 µM (inactive); in assay [10] it was 30.5 µM (inactive); in assay [11], 10.2 µM (inactive); in [12] it was 28.1 µM (inactive). In addition, the GI50 in [13] was 29.2 µM (inactive); in assay [14], 15.6 µM (inactive); in [15], 22 µM (inactive); in assay [16], 17.4 µM (inactive); in assay [17], 50.8 µM (inactive); in assay [18] it was 47.2 µM (inactive). In addition, in assay [20], the GI50 was 31 µM (inactive).
Consider `O=C(/C=C/C=C/c1ccccc1)CCc1ccccc1`, for which the GI50 in assay [1] was 22.1 µM (inactive); in assay [2], 20.3 µM (inactive); in assay [3] it was 83 µM (inactive); in assay [4], > 100 µM (inactive); in assay [5], 40.7 µM (inactive); in [6], 75.9 µM (inactive). The GI50 in assay [7] was 72.6 µM (inactive); in assay [8] it was > 100 µM (inactive); in assay [9], > 100 µM (inactive); in [11], > 100 µM (inactive); in assay [12], > 100 µM (inactive); in [13], > 100 µM (inactive). Also, the GI50 was > 100 µM (inactive) in assay [14]; > 100 µM (inactive) in [15]; > 100 µM (inactive) in [16]; > 100 µM (inactive) in assay [17]; 62.1 µM (inactive) in [18]; > 100 µM (inactive) in assay [19]. Further, the GI50 in assay [20] is 70.3 µM (inactive).
